Patent US9302999B2, “Substituted triazoles as herbicides” (E. I. DU PONT DE NEMOURS AND COMPANY, priority 2012, dated 2016)
Like-named read-outs stand apart in the source and are kept apart here.

Assays:
Assay type in all cases: in vivo
[1] = system: lambsquarters (Chenopodium album); assay: Test C pre-/postemergence: lambsquarters
Method in brief: (§1)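 Visual injury scored 0–100 (100 = complete control) against untreated controls after 13–15 greenhouse days. Surfactant-containing solvent formulations applied either to soil after sowing (loam/sand) or over 1- to 4-leaf plants, 2–18 cm tall.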

[2] = system: foxtail, giant (giant foxtail, Setaria faberii); assay: Test C pre-/postemergence: foxtail, giant
Method in brief: as §1

corn (Zea mays) = assay: Test C pre-/postemergence: corn
Method in brief: as §1

[3] = system: pigweed (Amaranthus retroflexus); assay: Test A pre-/postemergence: pigweed; conditions: Amaranthus retroflexus, 240 h; for pest or weed control at 125 g/ha: 125 g ai/ha; for pest or weed control at 500 g/ha: 500 g ai/ha
Method in brief: (§2)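 Pre: directed soil spray after planting in loam + sand. Post: same formulation (non-phytotoxic solvent + surfactant) on 1–2-leaf plants, 2–10 cm. Greenhouse ~10 d; visual injury 0–100 vs untreated.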

[4] = system: barnyardgrass (Echinochloa crus-galli); assay: Test B flooded paddy: barnyardgrass; conditions: Flood; 250 g ai/ha; applied to paddy water at 2-leaf stage; visually evaluated after 13 to 15 days
Method in brief: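 Each compound is applied to the floodwater of pots holding 2-leaf seedlings, water standing 3 cm over the soil throughout. Plants stay in a greenhouse 13 to 15 days before visual scoring against controls from 0 (no effect) to 100 (complete control).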

[5] = system: wheat (Triticum aestivum); assay: Test A pre-/postemergence: wheat; conditions: Triticum aestivum, 240 h; for plant injury at 125 g/ha: 125 g ai/ha; for plant injury at 500 g/ha: 500 g ai/ha
Method in brief: as §2

[6] = system: morningglory (Ipomoea coccinea); assay: Test C pre-/postemergence: morningglory
Method in brief: as §1

[7] = system: ryegrass, Italian (Italian ryegrass, Lolium multiflorum); assay: Test C pre-/postemergence: ryegrass, Italian
Method in brief: as §1

[8] = system: galium (catchweed bedstraw, Galium aparine); assay: Test C pre-/postemergence: galium
Method in brief: as §1

[9] = system: large crabgrass (Digitaria sanguinalis); assay: Test C pre-/postemergence: large crabgrass
Method in brief: as §1

[10] = Postemergence, 31 g ai/ha, scale 0 to 100 (0 no effect, 100 complete control)
[11] = Postemergence, 62 g ai/ha, scale 0 to 100 (0 no effect, 100 complete control)
[12] = Postemergence, 125 g ai/ha, scale 0 to 100, 0 no effect, 100 complete control
[13] = Postemergence, 250 g ai/ha, scale 0 to 100 (0 no effect, 100 complete control)
[14] = Preemergence, 31 g ai/ha, scale 0 (no effect) to 100 (complete control)
[15] = Preemergence, 62 g ai/ha, scale 0 to 100, 0 no effect, 100 complete control
[16] = Preemergence, 125 g ai/ha, scale 0 to 100, 0 no effect, 100 complete control
[17] = Preemergence, 250 g ai/ha, scale 0 to 100, 0 no effect, 100 complete control
[18] = Postemergence, 250 g ai/ha, scale 0 to 100

`CCOc1nn(-c2ccc(F)cc2)nc1Cc1ccnc(C(F)(F)F)c1` [Compound 196, 4-[[5-ethoxy-2-(4-fluorophenyl)-2H-1,2,3-triazol-4-yl]methyl]-2-(trifluoromethyl)pyridine] was tested, and the “Plant response rating, Lambsquarters” value [1, 10] was 95, the “Plant response rating, Lambsquarters” value [1, 11] was 95 and the “Plant response rating, Lambsquarters” value [1, 12] was 95. The “Plant response rating, Lambsquarters” value [1, 13] was 95, the “Plant response rating, Lambsquarters” value [1, 14] was 85 and the “Plant response rating, Lambsquarters” value [1, 15] was 90. For the same compound, the “Plant response rating, Lambsquarters” value [1, 16] was 95, the “Plant response rating, Lambsquarters” value [1, 17] was 95 and the “Plant response rating, Foxtail, Giant” value [2, 10] was 85. For the same compound, the “Plant response rating, Foxtail, Giant” value [2, 11] was 85, the “Plant response rating, Foxtail, Giant” value [2, 12] was 90 and the “Plant response rating, Foxtail, Giant” value [2, 18] was 90. The “Plant response rating, Foxtail, Giant” value [2, 14] was 100, the “Plant response rating, Foxtail, Giant” value [2, 15] was 100 and the “Plant response rating, Foxtail, Giant” value [2, 16] was 100. For the same compound, the “Plant response rating, Foxtail, Giant” value [2, 17] was 100, the “Plant response rating, Corn” value (corn (Zea mays); [10]) was 60 and the “Plant response rating, Corn” value (corn (Zea mays); [11]) was 60. The “Plant response rating, Corn” value (corn (Zea mays); [12]) was 65, the “Plant response rating, Corn” value (corn (Zea mays); [18]) was 65 and the “Plant response rating, Corn” value (corn (Zea mays); [14]) was 25. For the same compound, the “Plant response rating, Corn” value (corn (Zea mays); [15]) was 35, the “Plant response rating, Corn” value (corn (Zea mays); [16]) was 45 and the “Plant response rating, Corn” value (corn (Zea mays); [17]) was 50. It also gave a pest or weed control at 125 g/ha ([3]; post-emergence, Postemergence, 0 to 100 scale, 0 is no effect, 100 is complete control, read-out: Plant response rating, Pigweed) of 100%, a pest or weed control at 500 g/ha ([3]; post-emergence, Postemergence, 0 to 100 scale, 0 is no effect, 100 is complete control, read-out: Pigweed plant response rating) of 100% and a pest or weed control at 125 g/ha ([3]; pre-emergence, Preemergence, 0 to 100 scale where 0 is no effect and 100 is complete control, read-out: Plant response rating, Pigweed) of 100%. For the same compound, the pest or weed control at 500 g/ha ([3]; pre-emergence, Preemergence, 0 to 100 scale (0 no effect, 100 complete control), read-out: Plant response rating, Pigweed) was 100%, the “Plant response rating, Barnyardgrass (0 to 100 scale, 0 is no effect, 100 is complete control)” value [4] was 85 and the plant injury at 125 g/ha ([5]; post-emergence, Postemergence, 0 to 100 scale, 0 is no effect, 100 is complete control, read-out: Plant response rating, Wheat) was 50%. The plant injury at 500 g/ha ([5]; post-emergence, Postemergence, 0 to 100 scale, 0 is no effect, 100 is complete control, read-out: Wheat plant response rating) was 70%, the plant injury at 125 g/ha ([5]; pre-emergence, Preemergence, 0 to 100 scale where 0 is no effect and 100 is complete control, read-out: Plant response rating, Wheat) was 50% and the plant injury at 500 g/ha ([5]; pre-emergence, Preemergence, 0 to 100 scale (0 no effect, 100 complete control), read-out: Plant response rating, Wheat) was 70%. For the same compound, the “Plant response rating, Morningglory” value [6, 10] was 75, the “Plant response rating, Morningglory” value [6, 11] was 75 and the “Plant response rating, Morningglory” value [6, 12] was 75. For the same compound, the “Plant response rating, Morningglory” value [6, 13] was 75, the “Plant response rating, Morningglory” value [6, 14] was 40 and the “Plant response rating, Morningglory” value [6, 15] was 85. The “Plant response rating, Morningglory” value [6, 16] was 100, the “Plant response rating, Morningglory” value [6, 17] was 100 and the “Plant response rating, Ryegrass, Italian” value [7, 10] was 35. For the same compound, the “Plant response rating, Ryegrass, Italian” value [7, 11] was 60, the “Plant response rating, Ryegrass, Italian” value [7, 12] was 85 and the “Plant response rating, Ryegrass, Italian” value [7, 13] was 85. The “Plant response rating, Ryegrass, Italian” value [7, 14] was 80, the “Plant response rating, Ryegrass, Italian” value [7, 15] was 90 and the “Plant response rating, Ryegrass, Italian” value [7, 16] was 90. The “Plant response rating, Ryegrass, Italian” value [7, 17] was 90, the “Plant response rating, Galium” value [8, 10] was 80 and the “Plant response rating, Galium” value [8, 11] was 85. The “Plant response rating, Galium” value [8, 12] was 90, the “Plant response rating, Galium” value [8, 13] was 95 and the “Plant response rating, Galium” value [8, 14] was 85. For the same compound, the “Plant response rating, Galium” value [8, 15] was 95, the “Plant response rating, Galium” value [8, 16] was 98 and the “Plant response rating, Galium” value [8, 17] was 100. The “Plant response rating, Crabgrass, Large” value [9, 10] was 80, the “Plant response rating, Crabgrass, Large” value [9, 11] was 85 and the “Plant response rating, Crabgrass, Large” value [9, 12] was 85. For the same compound, the “Plant response rating, Crabgrass, Large” value [9, 18] was 95, the “Plant response rating, Crabgrass, Large” value [9, 14] was 100 and the “Plant response rating, Crabgrass, Large” value [9, 15] was 100. The “Plant response rating, Crabgrass, Large” value [9, 16] was 100 and the “Plant response rating, Crabgrass, Large” value [9, 17] was 100.
